Measurements taken from publication PMC5748275, “Novel Aryl Substituted Pyrazoles as Small Molecule Inhibitors of Cytochrome P450 CYP121A1: Synthesis and Antimycobacterial Evaluation” (Journal of Medicinal Chemistry, 2017).

Target: T1, CYP121A1 (Mycobacterium tuberculosis, UniProt P9WPP7)
T1 construct: made in house
Format: binding
Conditions: heme Soret peak position, ligand-free to apparent saturation

T1 sequence (P9WPP7 whole entry): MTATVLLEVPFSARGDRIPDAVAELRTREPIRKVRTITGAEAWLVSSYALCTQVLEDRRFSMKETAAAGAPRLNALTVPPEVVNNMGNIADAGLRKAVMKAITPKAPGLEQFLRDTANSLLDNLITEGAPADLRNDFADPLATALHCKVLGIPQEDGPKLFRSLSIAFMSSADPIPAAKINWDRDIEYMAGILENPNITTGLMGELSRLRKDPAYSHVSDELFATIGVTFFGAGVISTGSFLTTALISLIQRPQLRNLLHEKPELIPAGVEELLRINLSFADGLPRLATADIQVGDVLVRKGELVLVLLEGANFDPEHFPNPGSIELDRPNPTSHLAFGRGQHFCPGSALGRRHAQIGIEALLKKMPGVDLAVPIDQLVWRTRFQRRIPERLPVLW

Row | SMILES | Soret peak shift
1 | Ic1ccc(-c2nn(-c3ccccc3)cc2Cn2cncn2)cc1 [8g, 1-((3-(4-Iodophenyl)-1-phenyl-1H-pyrazol-4-yl)methyl)-1H-1,2,4-triazole] | no binding
2 | COc1ccc(-c2nn(-c3ccccc3)cc2Cn2ccnc2)cc1 [7e, 4-((1H-Imidazol-1-yl)methyl)-3-(4-methoxyphenyl)-1-phenyl-1H-pyrazole] | 416–421 nm
3 | c1ccc(-c2nn(-c3ccccc3)cc2Cn2ccnc2)cc1 [7a, (1,3-Diphenyl)-4-((1,3-imidazol-1-yl)methyl)-1H-pyrazole] | 416–423.5 nm
4 | Fc1ccc(-c2nn(-c3ccccc3)cc2Cn2ccnc2)cc1 [7b, 4-((1H-Imidazol-1-yl)methyl)-3-(4-fluorophenyl)-1-phenyl-1H-pyrazole] | 416–423.5 nm
5 | Fc1ccc(-c2nn(-c3ccccc3)cc2Cn2cncn2)cc1 [8b, 1-((3-(4-Fluorophenyl)-1-phenyl-1H-pyrazole-4-yl)methyl)-1H-1,2,4-triazole] | 416–423 nm
6 | Clc1ccc(-c2nn(-c3ccccc3)cc2Cn2ccnc2)cc1 [7c, 4-((1H-Imidazol-1-yl)methyl)-3-(4-chlorophenyl)-1-phenyl-1H-pyrazole] | 416–422 nm
7 | Cc1ccc(-c2nn(-c3ccccc3)cc2Cn2cncn2)cc1 [8d, 1((1-Phenyl-3-(p-tolyl)-1H-pyrazol-4-yl)methyl)-1H-1,2,4-triazole] | 416–418 nm
8 | Clc1ccc(-c2nn(-c3ccccc3)cc2Cn2cncn2)cc1 [8c, 1-((3-(4-Chlorophenyl)-1-phenyl-1H-pyrazole-4-yl)methyl)-1H-1,2,4-triazole] | 416–421 nm
9 | COc1ccc(-c2nn(-c3ccccc3)cc2Cn2cncn2)cc1 [8e, 1-((3-(4-Methoxyphenyl)-1-phenyl-1H-pyrazol-4-yl)methyl)-1H-1,2,4-triazole] | 416–420 nm
10 | Brc1ccc(-c2nn(-c3ccccc3)cc2Cn2ccnc2)cc1 [7f, 4-((1H-Imidazole-1-yl)methyl)-3-(4-bromophenyl)-1-phenyl-1H-pyrazole] | 416–420 nm
11 | Brc1ccc(-c2nn(-c3ccccc3)cc2Cn2cncn2)cc1 [8f, 1-((3-(4-Bromophenyl)-1-phenyl-1H-pyrazol-4-yl)methyl)-1H-1,2,4-triazole] | 416–417.5 nm
12 | O=C(NCCn1ccnc1)c1cn(-c2ccccc2)nc1-c1ccc(Cl)cc1 [13c, N-(2-(1H-Imidazol-1-yl)ethyl)-3-(4-chlorophenyl)-1-phenyl-1H-pyrazole-4-carboxamide] | no binding
13 | N#Cc1ccc(-c2nn(-c3ccccc3)cc2Cn2cncn2)cc1 [8h] | no binding
14 | Cc1ccc(-c2nn(-c3ccccc3)cc2Cn2ccnc2)cc1 [7d, 4-((1H-Imidazol-1-yl)methyl)-1-phenyl-3-(p-tolyl)-1H-pyrazole] | 416–421.5 nm
15 | Ic1ccc(-c2nn(-c3ccccc3)cc2Cn2ccnc2)cc1 [7g, 4-((1H-Imidazole-1-yl)methyl)-3-(4-iodophenyl)-1-phenyl-1H-pyrazole] | 416–422 nm
16 | c1ccc(-c2nn(-c3ccccc3)cc2Cn2cncn2)cc1 [8a, 1-((1,3-Diphenyl-1H-pyrazol-4-yl)methyl)-1H-[1,2,4]triazole] | 416–422 nm
17 | N#Cc1ccc(-c2nn(-c3ccccc3)cc2Cn2ccnc2)cc1 [7h, 4-(4-((1H-Imidazol-1-yl)methyl)-1-phenyl-1H-pyrazol-3-yl)benzonitrile] | 416–418 nm
18 | O=C(NCCn1ccnc1)c1cn(-c2ccccc2)nc1-c1ccc(F)cc1 [13b, N-(2-(1H-Imidazol-1-yl)ethyl)-3-(4-fluorophenyl)-1-phenyl-1H-pyrazole-4-carboxamide] | no binding
